This note sets out measurements from US20250186408A1, “TREATMENT OF PHARMACORESISTANT EPILEPSY” (Katholieke Universiteit Leuven, priority 2021, published 2025).

The term EC50 denotes the concentration needed to bring the measured effect to its halfway point. In general, IC50 refers to the midpoint of a concentration-inhibition curve.

Bounds are passed on as bounds.

Experiment [1] deals with T1, GR (Homo sapiens, UniProt P04150).
T1 construct: enzyme fragment for PathHunter enzyme fragment complementation (EFC)
T1 sequence (P04150 1-777): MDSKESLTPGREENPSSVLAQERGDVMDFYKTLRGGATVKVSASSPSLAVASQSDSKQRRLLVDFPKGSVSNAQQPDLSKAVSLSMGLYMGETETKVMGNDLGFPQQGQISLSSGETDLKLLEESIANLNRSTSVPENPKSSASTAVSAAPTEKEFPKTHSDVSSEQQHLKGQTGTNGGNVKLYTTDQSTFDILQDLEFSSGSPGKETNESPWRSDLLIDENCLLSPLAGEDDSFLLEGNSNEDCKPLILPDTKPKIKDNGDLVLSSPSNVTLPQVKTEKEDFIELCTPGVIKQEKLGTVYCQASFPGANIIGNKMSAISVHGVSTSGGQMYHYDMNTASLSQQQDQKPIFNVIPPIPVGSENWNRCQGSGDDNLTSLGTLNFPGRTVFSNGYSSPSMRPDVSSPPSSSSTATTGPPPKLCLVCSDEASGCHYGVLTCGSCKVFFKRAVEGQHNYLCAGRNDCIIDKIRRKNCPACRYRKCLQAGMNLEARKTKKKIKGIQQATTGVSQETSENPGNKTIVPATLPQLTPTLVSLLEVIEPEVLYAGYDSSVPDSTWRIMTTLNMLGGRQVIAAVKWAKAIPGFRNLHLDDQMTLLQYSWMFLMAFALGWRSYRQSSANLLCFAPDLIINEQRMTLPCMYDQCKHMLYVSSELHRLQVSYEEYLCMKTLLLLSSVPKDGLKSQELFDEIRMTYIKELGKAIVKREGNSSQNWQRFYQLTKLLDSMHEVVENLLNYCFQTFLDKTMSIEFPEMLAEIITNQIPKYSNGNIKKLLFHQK
Put plainly: NHR Protein Interaction GR Agonist. It counts as cell-based.
Protocol: (§1) In vitro pharmacological profiling of compounds was done against 78 functional assays for 47 common off-targets (30) by Eurofins DiscoverX Corporation (Fremont, CA, USA) using their SAFETYscan E/IC50 ELECT service (Cat Ref 87-1003DR, Safety47 Panel Dose Response). The following assays were performed: (1) GPCR cAMP modulation, (2) calcium mobilization, (3) nuclear hormone receptor assays, (4) KINOMEscan binding assays, (5) ion channel assays, (6) transporter assays and (7) enzymatic assays. Compounds were tested in a range of 10 concentrations, following a 3-fold serial dilution, starting from 10 μM. The assays were performed utilizing the PathHunter enzyme fragment complementation (EFC) technology, FLIPR®-based cellular screening assays, and KINOMEscan kinase binding assays.
(§2) Prior to testing, PathHunter NHR cell lines were expanded from freezer stocks and cells were seeded in a total volume of 20 μL into white walled 384-well microplates and incubated at 37° C. […] Microplates were read following signal generation with a PerkinElmer Envision™ instrument for chemiluminescent signal detection. Compound activity was analysed using CBIS data analysis suite (ChemInnovation, CA). For agonist mode assays, percentage activity was calculated using the following equation:

Experiment [2] deals with T1, GR. Put plainly: NHR Protein Interaction GR Antagonist. It counts as cell-based.
Protocol: as §1, §2

As to `Clc1cccc(C#Cc2n[nH]c3ncccc23)c1` [Compound 10.1, 3-((3-chlorophenyl)ethynyl)-1H-pyrazolo[3,4-b]pyridine], the Emax in experiment [1] (read-out: Max response) was 0%; in experiment [2] (read-out: Max response), 2.6%. Besides, the EC50 in experiment [1] (read-out: RC50, result type EC50) is more than 10 µM. Moreover, the IC50 in experiment [2] (read-out: RC50, result type IC50) was more than 10 µM.
